Test results reported in PubChem BioAssay AID1963986 (Molecular Pharmacology Branch, DTP, NCI, 2024).

Tested on: 171881-019-R-J1-PDC tumor spheroid viability
Test: Anticancer human tumor 171881-019-R-J1-PDC patient-derived invasive breast carcinoma cell line growth inhibition [PI3K]
Conditions: spheroids with HUVEC and MSC; for IC50: curve of first compound; for viability, T/C: stronger effect = lower value
Outline: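 Targeted small molecules plus PI3K inhibitors, half-log dose series from Cmax (default top 10 microM), were applied to heterotypic spheroids of cancer cells with HUVEC and MSCs. Viability indicated growth inhibition.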

[1] = second compound 0.0316 µM, first compound 0.0316 µM
[2] = second compound 0.0316 µM, first compound 0.1 µM
[3] = second compound 0.0316 µM, first compound 0.316 µM
[4] = second compound 0.0316 µM, first compound 1 µM
[5] = second compound 0.0316 µM, first compound 3.16 µM
[6] = second compound 0.0316 µM, first compound 10 µM
[7] = second compound 0.1 µM, first compound 0.0316 µM
[8] = second compound 0.1 µM, first compound 0.1 µM
[9] = second compound 0.1 µM, first compound 0.316 µM
[10] = second compound 0.1 µM, first compound 1 µM
[11] = second compound 0.1 µM, first compound 3.16 µM
[12] = second compound 0.1 µM, first compound 10 µM
[13] = second compound 0.316 µM, first compound 0.0316 µM
[14] = second compound 0.316 µM, first compound 0.1 µM
[15] = second compound 0.316 µM, first compound 0.316 µM
[16] = second compound 0.316 µM, first compound 1 µM
[17] = second compound 0.316 µM, first compound 3.16 µM
[18] = second compound 0.316 µM, first compound 10 µM
[19] = second compound 1 µM, first compound 0.0316 µM
[20] = second compound 1 µM, first compound 0.1 µM
[21] = second compound 1 µM, first compound 0.316 µM
[22] = second compound 1 µM, first compound 1 µM
[23] = second compound 1 µM, first compound 3.16 µM
[24] = second compound 1 µM, first compound 10 µM
[25] = second compound 3.16 µM, first compound 0.0316 µM
[26] = second compound 3.16 µM, first compound 0.1 µM
[27] = second compound 3.16 µM, first compound 0.316 µM
[28] = second compound 3.16 µM, first compound 1 µM
[29] = second compound 3.16 µM, first compound 3.16 µM
[30] = second compound 3.16 µM, first compound 10 µM
[31] = second compound 10 µM, first compound 0.0316 µM
[32] = second compound 10 µM, first compound 0.1 µM
[33] = second compound 10 µM, first compound 0.316 µM
[34] = second compound 10 µM, first compound 1 µM
[35] = second compound 10 µM, first compound 3.16 µM
[36] = second compound 10 µM, first compound 10 µM
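Also: spheroids exposed to compound for 7 days before viability read.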
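For viability, T/C in this document: 100% = DMSO vehicle-treated spheroids.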

In the case of `C#Cc1c(F)ccc2cc(O)cc(-c3ncc4c(N5CC6CCC(C5)N6)nc(OCC56CCCN5CC(F)C6)nc4c3F)c12` (centres undefined) + Cc1nc(NC(=O)N2CCCC2C(N)=O)sc1-c1ccnc(C(C)(C)C(F)(F)F)c1, the IC50 (second compound 0.0316 µM) is reported as 250 nM, the IC50 (second compound 0.1 µM) is reported as 115 nM and the IC50 (second compound 0.316 µM) is reported as under 31.6 nM. For the same compound, the IC50 (second compound 1 µM) was under 31.6 nM, the IC50 (second compound 3.16 µM) was under 31.6 nM and the IC50 (second compound 10 µM) was under 31.6 nM. It also gave a viability, T/C [1] of 88.3%, a viability, T/C [2] of 66.7% and a viability, T/C [3] of 44.4%. It also gave a viability, T/C [4] of 32.9%, a viability, T/C [5] of 27.4% and a viability, T/C [6] of 20%. It also gave a viability, T/C [7] of 72.3%, a viability, T/C [8] of 51.2% and a viability, T/C [9] of 37.7%. For the same compound, the viability, T/C [10] was 26.1%, the viability, T/C [11] was 20.8% and the viability, T/C [12] was 16.4%. The viability, T/C [13] was 46%, the viability, T/C [14] was 30.1% and the viability, T/C [15] was 22.6%. For the same compound, the viability, T/C [16] was 15.6%, the viability, T/C [17] was 11.7% and the viability, T/C [18] was 10.2%. For the same compound, the viability, T/C [19] was 27.2%, the viability, T/C [20] was 19.1% and the viability, T/C [21] was 13%. For the same compound, the viability, T/C [22] was 9.14%, the viability, T/C [23] was 7.33% and the viability, T/C [24] was 5.95%. For the same compound, the viability, T/C [25] was 11%, the viability, T/C [26] was 7.63% and the viability, T/C [27] was 5.67%. For the same compound, the viability, T/C [28] was 4.44%, the viability, T/C [29] was 4% and the viability, T/C [30] was 1.21%. It also gave a viability, T/C [31] of 2.71%, a viability, T/C [32] of 3.19% and a viability, T/C [33] of 2.3%. The viability, T/C [34] was 2.05%, the viability, T/C [35] was 1.56% and the viability, T/C [36] was 0.74%.
`CC(Cn1ccc(-c2ccc(C#N)c(Cl)c2)n1)NC(=O)c1cc(C(C)O)[nH]n1` (centres undefined) + Cc1nc(NC(=O)N2CCCC2C(N)=O)sc1-c1ccnc(C(C)(C)C(F)(F)F)c1 gave an IC50 (second compound 0.0316 µM) of over 10000 nM, an IC50 (second compound 0.1 µM) of over 10000 nM and an IC50 (second compound 0.316 µM) of 4160 nM. The IC50 (second compound 1 µM) was under 31.6 nM, the IC50 (second compound 3.16 µM) was under 31.6 nM and the IC50 (second compound 10 µM) was under 31.6 nM. The viability, T/C [1] was 101%, the viability, T/C [2] was 85.3% and the viability, T/C [3] was 87.7%. The viability, T/C [4] was 93.7%, the viability, T/C [5] was 85% and the viability, T/C [6] was 62.8%. It also gave a viability, T/C [7] of 74.8%, a viability, T/C [8] of 72.9% and a viability, T/C [9] of 81.3%. It also gave a viability, T/C [10] of 80%, a viability, T/C [11] of 75.6% and a viability, T/C [12] of 59.1%. The viability, T/C [13] was 55.5%, the viability, T/C [14] was 55.3% and the viability, T/C [15] was 50.7%. It also gave a viability, T/C [16] of 57.7%, a viability, T/C [17] of 52.5% and a viability, T/C [18] of 40.3%. It also gave a viability, T/C [19] of 34.4%, a viability, T/C [20] of 32.9% and a viability, T/C [21] of 33.4%. The viability, T/C [22] was 30.8%, the viability, T/C [23] was 30.5% and the viability, T/C [24] was 24.4%. The viability, T/C [25] was 14.5%, the viability, T/C [26] was 13.7% and the viability, T/C [27] was 15.3%. It also gave a viability, T/C [28] of 13.1%, a viability, T/C [29] of 14.2% and a viability, T/C [30] of 11.9%. The viability, T/C [31] was 3.76%, the viability, T/C [32] was 3.6% and the viability, T/C [33] was 3.61%. It also gave a viability, T/C [34] of 3.9%, a viability, T/C [35] of 3.74% and a viability, T/C [36] of 3.87%.
